According to patent publication US20050107447A1, “Novel lysophosphatidic acid receptor agonists and antagonists” (priority 2003, published 2005):
Several values for one entry are separate records, joined by “and”; a condition that tells them apart may be missing. Equal entries are not always repeated. Entries after “also recorded” stand apart in the source; their conditions may differ.

How the values were obtained:
LPA3 = molecular target: T1, LPA3 (Homo sapiens, UniProt Q9UBY5); test: GTP[γ35S] binding, LPA3 transfected HEK293T cell membranes; assay type: biochemical; design: expressed in transfected cells; host or cells: HEK293T (transient, calcium phosphate); conditions: for EC50: agonist, GTP[γ35S] binding
T1 sequence (Q9UBY5 1-353): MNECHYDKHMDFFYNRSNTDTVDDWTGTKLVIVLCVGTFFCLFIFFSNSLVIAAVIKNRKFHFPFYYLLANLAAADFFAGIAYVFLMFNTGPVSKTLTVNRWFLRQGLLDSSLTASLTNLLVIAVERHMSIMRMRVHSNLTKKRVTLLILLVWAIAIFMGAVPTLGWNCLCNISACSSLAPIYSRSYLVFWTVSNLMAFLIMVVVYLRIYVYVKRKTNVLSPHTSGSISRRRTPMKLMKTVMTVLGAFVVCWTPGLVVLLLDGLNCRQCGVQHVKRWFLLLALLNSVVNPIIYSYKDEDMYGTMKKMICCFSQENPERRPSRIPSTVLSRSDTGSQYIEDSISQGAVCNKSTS
Protocol: (§1) The appropriate receptor plasmid DNA (encoding mouse LPA1, human LPA2 or human LPA3) was mixed with equal amounts of expression plasmids (pcDNA3) encoding a mutated (C351F) rat Gi2a, cow β1, and γ2 proteins and these DNAs were used to transfect monolayers of HEK293T cells (where ‘T’ indicates expression of the SV-40 virus large T antigen) using the calcium phosphate precipitate method. After about 60 hours, cells were harvested, membranes were prepared, aliquoted and stored at −70° C. until use.
(§2) The GTP[35 γS] assay was performed as described by us previously. Membranes containing 5 ug of protein were incubated in 0.1 ml GTP-binding buffer (in mM: HEPES 50, NaCl 100, MgCl2 10, pH7.5) containing […], […], 0.1 nM GTP[35 γS] (1200 Ci/mmol), and indicated lipid(s) for 30 minutes at 30° C. Samples were analyzed for membrane-bound radionuclide using a Brandel Cell Harvester (Gaithersburg, Md.).
(§3) The X-intercept of the linear transformation is equal to the inverse log of the κ1.
(§4) Membranes prepared from these cells are used to measure GTPγ[^35S] binding as a function of test compound concentration. The resulting dose-response curves provide relative potency (EC50) and efficacy, (Emax) for the test compounds.

LPA2 = LPA2 (Homo sapiens, UniProt Q9HBW0); test: GTP[γ35S] binding, LPA2 transfected HEK293T cell membranes; assay type: biochemical; design: expressed in transfected cells; host or cells: HEK293T (transient, calcium phosphate); conditions: for EC50: agonist, GTP[γ35S] binding
Protocol: as §1, §2, §3, §4

LPA1 [1] = molecular target: T2, LPA1 (Mus musculus, UniProt P61793); test: GTP[γ35S] binding, LPA1 transfected HEK293T (or RH7777) cell membranes; assay type: biochemical; design: expressed in transfected cells; host or cells: HEK293T (transient, with G protein plasmids); some results from RH7777 rat hepatoma membranes transfected with LPA1 DNA only; conditions: for EC50: agonist, GTP[γ35S] binding; for Potency at LPA1 relative to LPA: vs 1-oleoyl LPA
Protocol: as §1, §2, §3, §4

LPA receptors = test: Whole cell assays of calcium mobilization or inhibition of cAMP accumulation (agonist activity); assay type: cell-based
Protocol: (§5) Assays for cAMP accumulation were conducted on populations of 5×10^5 cells stimulated with […] in the presence of the phosphodiesterase inhibitor isomethylbutylxanthine (IBMX) for 15 minutes at 30° C. cAMP was measured by automated radioimmunoassay.
A FLIPR™ (Molecular Devices, Inc.) was used to measure intracellular calcium in A431 and HEK293T cells. A431 cells were seeded (−50,000 cells/well) in 96-well clear bottom black microplates (Corning Costar Corp., Cambridge, Mass.) and left overnight in CO2 incubator at 37° C. HEK293T cells were treated likewise, but seeded onto poly D-lysine coated microplates (Becton Dickinson, Franklin Lakes, N.J.). A431 cells were dye-loaded with 4 μM Fluo-3 AM ester (Molecular Probes Inc., Eugene, Oreg.) in a loading buffer (1×HBSS buffer, pH 7.4, containing 20 mM HEPES, 0.1% BSA, and 2.5 mM probenecid) for 1 hour at 37° C. Cells were then washed four times with the loading buffer and exposed in the FLIPR™ to sets of compounds. HEK293T cells were loaded with 2 μM Fluo-4 AM ester (Molecular Probes Inc., Eugene, Oreg.) in the same loading buffer without probenecid for 30 minutes and washed four times before being exposed to compounds in the FLIPR™. […]
(§6) The same activity was determined with human LPA1 using a recombinant baculovirus-infected insect Sf9 cell membrane preparation.

[2] = test system: HEK293T cells (express LPA1 and LPA3, not LPA2); test: Block of LPA-induced rises in free intracellular calcium in HEK293T cells (FLIPR); assay type: cell-based; conditions: specificity control
Text: as §3

human LPA1 = molecular target: T3, human LPA1 (Homo sapiens, UniProt Q92633); test: GTP[γ35S] binding, recombinant baculovirus-infected insect Sf9 cell membrane preparation; assay type: biochemical; conditions: Sf9 membranes
T3 construct: expressed in transfected cells; host or cells: Sf9 insect cells, recombinant baculovirus
Protocol: as §6

[3] = test system: renal injury following ischemia-reperfusion (IR); test: Renal ischemia-reperfusion model; assay type: in vivo, mouse; conditions: for Plasma creatinine: 24 hrs of reperfusion, n=4
Protocol: C57BL6 mice (20 gm, 8 wks of age) were used for all studies. The surgical protocol of renal IR has been previously described (Okusa et al., 1999. Am. J. Physiol. (Renal Physiol.) 277: F404-412; Okusa, et al., 2000 Am. J. Physiol. (Renal Physiol.) 279; F809-F818, and Okusa et al., 2001 Kidney Int. 59:2114-2125). For the injury protocol, bilateral flank incisions were made under anesthesia with a regimen that consists of ketamine (100 mg/kg, ip.), xylazine (10 mg/kg, ip.) and acepromazine (1 mg/kg, im.). Renal pedicles were exposed and cross-clamped for 27-32 min. Kidneys were examined for immediate reperfusion following clamp removal. Wounds were closed and mice were returned to cages. […] The mice were sacrificed and the kidneys harvested at 1, 4, 8, 24, 48 hrs, 5 and 7 days. […] Mice were sacrificed following 24 hrs of reperfusion and plasma was obtained for BUN and creatinine.

LPA1 [4] = molecular target: T2, LPA1; test: cAMP accumulation in RH7777 cells stably expressing LPA1; assay type: cell-based; design: expressed in transfected cells; conditions: RH7777 cells stably expressing LPA1
Protocol: as §5
Rat hepatoma RH7777 cell monolayers were transfected with the mLPA1 plasmid DNA using the calcium phosphate precipitate method and clonal populations expressing the neomycin phosphotransferase gene were selected by addition of geneticin (G418) to the culture media. The RH7777 cells were grown in monolayers at 37° C. in a 5% CO02/95% air atmosphere in growth media consisting of: 90% MEM, 10% fetal bovine serum, 2 mM glutamine and 1 mM sodium pyruvate.
wls-b8L and the other phosphonates were also tested also for activity in three whole cell assays. […] Finally, the activity of wls-b8L in activating a chloride conductance in Xenopus laevis ooctyes was measured.

Sequence of LPA2 (Q9HBW0 whole entry): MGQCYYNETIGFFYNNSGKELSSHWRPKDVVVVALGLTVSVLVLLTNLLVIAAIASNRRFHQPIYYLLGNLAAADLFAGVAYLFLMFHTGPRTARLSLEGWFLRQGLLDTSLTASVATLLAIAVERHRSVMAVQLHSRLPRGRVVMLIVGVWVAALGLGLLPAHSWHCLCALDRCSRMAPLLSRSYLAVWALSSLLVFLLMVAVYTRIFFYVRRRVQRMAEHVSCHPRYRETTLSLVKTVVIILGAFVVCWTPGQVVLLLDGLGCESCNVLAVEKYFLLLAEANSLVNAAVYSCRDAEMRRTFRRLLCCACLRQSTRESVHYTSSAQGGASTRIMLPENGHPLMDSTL
T2 sequence (P61793 whole entry): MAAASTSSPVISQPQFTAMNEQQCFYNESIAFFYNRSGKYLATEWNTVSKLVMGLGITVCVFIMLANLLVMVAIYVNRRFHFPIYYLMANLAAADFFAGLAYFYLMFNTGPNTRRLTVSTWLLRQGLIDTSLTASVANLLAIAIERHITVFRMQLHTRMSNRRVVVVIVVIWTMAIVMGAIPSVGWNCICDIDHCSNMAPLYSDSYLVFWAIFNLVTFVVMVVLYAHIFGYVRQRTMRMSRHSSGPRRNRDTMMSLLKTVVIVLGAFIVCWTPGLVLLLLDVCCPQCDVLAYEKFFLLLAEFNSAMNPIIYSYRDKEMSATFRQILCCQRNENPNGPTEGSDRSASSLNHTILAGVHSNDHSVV
T3 sequence (Q92633 whole entry): as the sequence (P61793 whole entry) above, with A4I, S8I, Q22P, Y40H, V61I, D193E, H194N, V269I, N331S, N335T counted along it

Row | EC50 (LPA3) [nM] | EC50 (LPA2) [nM] | Emax (LPA1 [1]) [%] | EC50 (LPA1 [1]) [nM] | Emax (LPA3) [%] | Emax (LPA2) [%] | Compound | other results
1 | 262 | 6.8 |  |  |  |  | 1-acyl, 2-hydroxyl-sn-glycerol-3-phosphate [LPA, reference compound] | LPA3 Emax (LPA3; LPA = 100): 100
2 | > 5000 | > 5000 | 9.4 | > 5000 | 3.8 | 36.4 | CCCCCCCC/C=C\CCCCCCCC(=O)N[C@@H](CN)COP(=O)(O)O [VPC12048] | 
3 | 351 | 268 | 23.7 | 38.4 | 78.7 | 97 | CCCCCCCC/C=C\CCCCCCCC(=O)N[C@@H](COP(=O)(O)O)Cc1ccccc1 [VPC12084] | Agonist activity in whole cell assays (LPA receptors): appreciable agonist activity; Antagonism of LPA-induced GTP[γ35S] binding at LPA1 (LPA1 [1]): did block LPA activity
4 | 113 | 18.3 | 108 | 3.4 | 93.4 | 95.2 | CCCCCCCC/C=C\CCCCCCCC(=O)N[C@H](C)COP(=O)(O)O [VPC12086] | Potency at LPA1 relative to LPA (LPA1 [1]): more potent than 1-oleoyl LPA; also recorded: more potent and efficacious than LPA
5 | 3810 | 799 | 51 | 73.8 | 45.3 | 85.8 | CCCCCCCC/C=C\CCCCCCCC(=O)N[C@@H](COP(=O)(O)O)C(C)C [VPC12098] | 
6 | > 5000 | > 5000 | 48.1 | 2900 | 9.7 | 6.9 | CCCCCCCC/C=C\CCCCCCCC(=O)N[C@@H](C)COP(=O)(O)O [VPC12101] | 
7 | 1080 | 162 | 66.8 | 35.8 | 83.5 | 92.6 | CCCCCCCC/C=C\CCCCCCCC(=O)N[C@H](CC)COP(=O)(O)O [VPC12109] | 
8 | 4980 | 4280 | 62.3 | 1580 | 89.3 | 85.6 | CCCCCCCC/C=C\CCCCCCCC(=O)N[C@@H](CC)COP(=O)(O)O [VPC12115] | 
9 | 684 | 50.3 | 98.7 | 4.9 | 103 | 103 | CCCCCCCC/C=C\CCCCCCCC(=O)N[C@H](CN)COP(=O)(O)O [VPC12178] | Potency at LPA1 relative to LPA (LPA1 [1]): more potent than 1-oleoyl LPA
10 |  |  |  |  |  |  | CCCCCCCC/C=C\CCCCCCCC(=O)N[C@H](COP(=O)(O)O)Cc1ccc(OCc2ccccc2)cc1 [VPC12249] | Antagonism of ATP-evoked calcium transients [2]: lack of antagonism; Antagonist activity at human LPA1 (human LPA1): same activity; Agonist activity in whole cell assays (LPA receptors): completely devoid of agonist activity; Antagonism of LPA-induced GTP[γ35S] binding at LPA3 (LPA3): surmountable antagonist; Ki (LPA3; Schild regression, block of LPA-induced GTP[γ35S] binding): 428 nM and ~425 nM; Antagonism of LPA-induced GTP[γ35S] binding at LPA2 (LPA2): lack of antagonist activity; Plasma creatinine ([3]; 0.01 mg/kg/2 hrs): 1.06±0.25; H and E sections, tissue preservation ([3]; 1 mg/kg/2 hr): marked degree of tissue preservation; Plasma creatinine ([3]; 1.0 mg/kg/2 hrs): 0.31±0.4; Block of LPA1-mediated inhibition of forskolin-induced cAMP increase (LPA1 [4]): inhibited
11 | > 5000 | > 5000 |  | > 5000 |  |  | CCCCCCCC/C=C\CCCCCCCC(=O)N[C@H](COP(=O)(O)O)Cc1ccccc1 [VPC12255] | 
12 | 1480 | 29.2 | 66.2 | 18.5 | 84.4 | 91.3 | CCCCCCCC/C=C\CCCCCCCC(=O)N[C@@H](COP(=O)(O)O)C(=O)OC [VPC31139] | 
13 | 322 | 116 | 161 | 7.9 | 107 | 105 | CCCCCCCC/C=C\CCCCCCCC(=O)N[C@H](CO)COP(=O)(O)O [VPC31143] | Potency at LPA1 relative to LPA (LPA1 [1]): more potent than 1-oleoyl LPA
14 | 4350 | 2640 | 91.1 | > 5000 |  | 77.3 | CCCCCCCC/C=C\CCCCCCCC(=O)N[C@@H](CO)COP(=O)(O)O [VPC31144] | 
15 |  |  |  |  |  |  | CCCCCCCC/C=C\CCCCCCCC(=O)N[C@@H](COP(=O)(O)O)Cc1ccc(OCc2ccc(CCCCC)cc2)cc1 [VPC31162] | Agonist activity/efficacy at LPA1 (LPA1 [1]; compared to LPA): agonist; Agonist activity/efficacy at LPA3 (LPA3; compared to LPA): agonist; Antagonism of LPA-induced GTP[γ35S] binding at LPA2 (LPA2): antagonist activity
16 | > 5000 | 3460 | 50.6 | 1210 | 3.8 | 60.2 | CCCCCCCC/C=C\CCCCCCCC(=O)N[C@H](COP(=O)(O)O)C(=O)OC [VPC31180] | 
17 | > 5000 | > 5000 | 14.8 | > 5000 | 27.7 | 27.6 | CCCCCCCC/C=C\CCCCCCCC(=O)N[C@H](COP(=O)(O)O)C(C)C [compound 40105] | 
